In patent US20220274911A1, “ARYLPROPIONIC ACID DERIVATIVE, PHARMACEUTICAL COMPOSITION AND PREPARATION METHOD AND APPLICATION THEREOF” (NANJING HERON PHARMACEUTICAL SCIENCE AND TECHNOLOGY CO., …, priority 2020, published 2022):

Tests used:
[1] = Metabolism of the compound in human plasma (hydrolysis to the active metabolite); format: in vitro ADME; conditions: in vitro human plasma; for Remaining Amount of the Prodrug Compound (%): 37° C., 200 rpm, time point of the tabulated value not stated (samples at 0, 15, 30, 60 and 120 min)
Procedure: (1) 40 mM pure acetonitrile stock solutions of Compound 1, Compound 7 and Compound a were prepared;
(2) the stock solution (25 μL) of Compound a was mixed with 1 mL of human plasma and vortexed for 30 s, a sample (200 μL) was added to 800 μL of acetonitrile to precipitate proteins and vortexed for 1 min, and then the reaction was stopped as a control of an active metabolite of loxoprofen; and 40 mM stock solutions of Compound 1 and Compound 7 were diluted 200 times as prodrug controls;
(4) the pure acetonitrile stock solution (100 μL) of each of Compound 1 and Compound 7 was mixed with 4 mL of human plasma, vortexed for 30 s, and oscillated at 200 rpm in an oscillating water bath heater with a constant temperature of 37° C.;
(5) samples (200 μL) were taken at different time points (0, 15, 30, 60 and 120 min) with three samples at each time point, added with 800 μL of acetonitrile to precipitate proteins and vortexed for 1 min, and then the reaction was stopped; and a blank plasma control was obtained in the same manner;
(6) the samples were centrifuged at 12000 rpm for 10 min at 4° C., the supernatant was taken and injected at a volume of 30 μL (through a filter membrane), and changes of a peak area were recorded;
(7) hydrolysis rates of Compound 1 and Compound 7 were observed and analyzed.

[2] = Solubility of the active metabolite of loxoprofen; format: physicochemical
[3] = Physicochemical stability of the active metabolite of loxoprofen; conditions: high temperature, high humidity, cold white fluorescent lamp and ultraviolet lamp

| Remaining Amount of the Prodrug Compound (%) [1] | solubility ([2]; in a slightly alkaline aqueous solution) | solubility ([2]; in pure water) | physicochemical stability [3] | Compound | transformation into the active metabolite [1] | metabolic rate ([1]; compared with Compound 1) |
| --- | --- | --- | --- | --- | --- | --- |
| 35.41% ± 1.83% | – | – | – | CCOC(=O)OC(C)OC(=O)[C@@H](C)c1ccc(C[C@H]2CCC[C@@H]2O)cc1 (some centres unmarked) [Compound 1] | rapidly transformed into the active metabolite | – |
| 21.41% ± 0.49% | – | – | – | CC(=O)OC(C)OC(=O)[C@@H](C)c1ccc(C[C@H]2CCC[C@@H]2O)cc1 (some centres unmarked) [Compound 7] | rapidly transformed into the active metabolite | slightly faster than that of Compound 1 without a significant difference |
| – | soluble | low solubility | poor physicochemical stability | C[C@H](C(=O)O)c1ccc(C[C@H]2CCC[C@@H]2O)cc1 [Compound a, (S)-2-(4-(((1R, 2S)-2-hydroxycyclopentyl)methyl)phenyl)propionic acid] | – | – |
